Each block holds one molecule with its values, some of them ahead of it.
Assays:
[1] = test system: TQ3/Cy3-fl (RNA, riboswitch, aminoallyl-U conjugated to TQ3 at 24; Cy3-C at 55) GGGAAGAUAUAAUCCUAAUGAUAUGGUUUGGGAGUUUCUACCAAGAGCCUUAAACUCUUGAUUAUCUUCUCUGUCGCUUUAUCCCAAAUUUUAUAAAGAGAAGACUCAUGAAU; assay: Cy3-TQ3 FRET quenching titration, steady-state fluorescence; conditions: Mg2+ not stated
[2] = test system: TQ3/Cy3-apt (RNA, riboswitch, aminoallyl-U conjugated to TQ3 at 24; Cy3-C at 55) GGGAAGAUAUAAUCCUAAUGAUAUGGUUUGGGAGUUUCUACCAAGAGCCUUAAACUCUUGAUUAUCUUCCC; assay: Cy3-TQ3 FRET quenching titration, steady-state fluorescence, sigmoidal fit; conditions: 100 mM KCl, 2 mM MgCl2; 10 mM HEPES, pH 7.5; 0.4 μM RNA; apparent
[3] = test system: TQ3/Cy3-fl (RNA, riboswitch, aminoallyl-U conjugated to TQ3 at 24; Cy3-C at 55) GGGAAGAUAUAAUCCUAAUGAUAUGGUUUGGGAGUUUCUACCAAGAGCCUUAAACUCUUGAUUAUCUUCUCUGUCGCUUUAUCCCAAAUUUUAUAAAGAGAAGACUCAUGAAU; assay: as above; conditions: 100 mM KCl, 2 mM MgCl2; 10 mM HEPES, pH 7.5; 0.4 μM RNA; apparent

binding ([1]; tested up to 1 mM guanine): no
Structure (SMILES): Nc1nc2[nH]cnc2c(=O)[nH]1

KD [2]: 61.833 ± 0.621 µM
KD [3]: 15.826 ± 0.287 µM
Structure (SMILES): Nc1ncnc2[nH]cnc12

binding ([1]; tested up to 1 mM ATP): no
Structure (SMILES): Nc1ncnc2c1ncn2[C@@H]1O[C@H](COP(=O)(O)OP(=O)(O)OP(=O)(O)O)[C@@H](O)[C@H]1O

Source: PMC8835884 (2022)
